Source: patent US20150065440A1 (Progen Pharmaceuticals Limited, priority 2007, published 2015)
Structures can show the parent of a compound that is named as a salt.

How the values were obtained:
[1] = tested on: normal pooled human plasma; experiment: Anticoagulant activity, Heptest; conditions: 0.1 mg/mL in normal pooled human plasma
[2] = molecular target: FGF-1 (Homo sapiens, UniProt P05230); experiment: Growth factor binding assay (SPR solution affinity), FGF-1; conditions: SPR, HBS-EP buffer, 25° C.; read-out: Kd FGF-1
Method: (§1) Binding affinities of compounds for the growth factors FGF-1, FGF-2 and VEGF were measured using a surface plasmon resonance (SPR) based solution affinity assay.^9 Heparin-coated sensorchips used for this assay were prepared via immobilisation of biotinylated BSA-heparin on a streptavidin-coated sensorchip, or via aldehyde coupling using either adipic acid dihydrazide or 1,4-diaminobutane.^9 For each Kd measurement, solutions were prepared containing a fixed concentration of protein and varying concentrations of the ligand in buffer. Ligands binding to FGF-1 and VEGF were measured in HBS-EP buffer (10 mM HEPES, pH 7.4, 150 mM NaCl, 3.0 mM EDTA and 0.005% (v/v) polysorbate 20), while binding to FGF-2 was measured in HBS-EP buffer containing 0.3 M NaCl. Prior to injection, samples were maintained at 4° C. to maximise protein stability. For each assay mixture, 50-200 μL of solution was injected at 5-40 μL/min and the relative binding response measured. All surface binding experiments were performed at 25° C. The surface was regenerated by injection of 40 μL of 4M NaCl at 40 μL/min, followed by injection of 40 μL of buffer at 40 μL/min.
(§2) Sensorgram data were analysed using the BIAevaluation software (BIAcore) and Kd values determined as previously described.^9 Where Kd values were measured in duplicate, the values represent the average of the duplicate measurements.

[3] = tested on: pooled normal human plasma; experiment: Anticoagulant activity, APTT; conditions: 0.1 mg/mL in normal pooled human plasma
Method: APTT measurements were performed on a STAGO STA-Compact Coagulation Analyser using standard protocols according to the manufacturer's instructions. Unfractionated heparin (UFH) was used as a control.

[4] = molecular target: T1, VEGF (Homo sapiens, UniProt P15692); experiment: Growth factor binding assay (SPR solution affinity), VEGF; conditions: HBS-EP buffer, 25° C.
T1 sequence (P15692 207-395): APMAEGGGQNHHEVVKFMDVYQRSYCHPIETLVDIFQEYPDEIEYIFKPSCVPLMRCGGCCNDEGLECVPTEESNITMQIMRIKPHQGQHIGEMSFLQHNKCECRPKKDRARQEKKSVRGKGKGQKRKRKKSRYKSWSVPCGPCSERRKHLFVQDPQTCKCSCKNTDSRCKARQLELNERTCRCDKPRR
Method: as §1, §2

[5] = molecular target: T2, recombinant human heparanase (Homo sapiens, UniProt Q9Y251); experiment: Heparanase inhibition assay (fondaparinux cleavage, WST-1); conditions: read-out: Ki Heparanase; IC50 converted into Ki; fondaparinux 100 μM, pH 5.0
T2 sequence (Q9Y251 158-543 limits assumed): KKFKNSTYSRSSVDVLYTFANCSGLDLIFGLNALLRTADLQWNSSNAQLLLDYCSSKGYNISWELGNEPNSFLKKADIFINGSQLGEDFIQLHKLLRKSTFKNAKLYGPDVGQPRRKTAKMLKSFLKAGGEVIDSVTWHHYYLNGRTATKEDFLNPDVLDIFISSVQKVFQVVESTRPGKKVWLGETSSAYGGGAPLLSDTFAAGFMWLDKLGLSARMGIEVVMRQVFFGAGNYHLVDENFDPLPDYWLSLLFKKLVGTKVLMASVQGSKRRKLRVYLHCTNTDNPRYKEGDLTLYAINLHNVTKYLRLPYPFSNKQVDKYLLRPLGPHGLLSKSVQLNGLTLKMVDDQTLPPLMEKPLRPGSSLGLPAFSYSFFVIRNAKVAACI
T2 sequence (Q9Y251 36-109 limits assumed): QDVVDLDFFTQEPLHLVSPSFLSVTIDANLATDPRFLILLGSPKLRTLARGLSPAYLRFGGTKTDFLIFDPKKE
Method: In the presence of an inhibitor the catalytic activity of heparanase is reduced, and the amount of disaccharide produced and the optical density of the solution are both decreased. The percent inhibition and IC50 of the inhibitor are determined from measurement of the optical density (OD) over a range of inhibitor concentrations.
Assays were carried out in 40 mM sodium acetate buffer, pH 5.0, as follows. […] A blue colour was developed by incubation of the plates at 60° C. for 60 min. […] The IC50 value for each compound was evaluated and converted into a Ki (inhibition constant) using the expression

[6] = molecular target: FGF-2 (Homo sapiens, UniProt P09038); experiment: Growth factor binding assay (SPR solution affinity), FGF-2; conditions: SPR, HBS-EP buffer containing 0.3 M NaCl, 25° C.; read-out: Kd FGF-2
Method: as §1, §2

Chain of FGF-2 (P09038 143-288, species assumed): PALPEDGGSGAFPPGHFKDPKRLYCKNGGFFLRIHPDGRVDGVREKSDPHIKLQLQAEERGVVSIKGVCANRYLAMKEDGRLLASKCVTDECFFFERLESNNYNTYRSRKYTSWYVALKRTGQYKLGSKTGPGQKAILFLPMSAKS
Chain of FGF-1 (P05230 whole entry, species assumed): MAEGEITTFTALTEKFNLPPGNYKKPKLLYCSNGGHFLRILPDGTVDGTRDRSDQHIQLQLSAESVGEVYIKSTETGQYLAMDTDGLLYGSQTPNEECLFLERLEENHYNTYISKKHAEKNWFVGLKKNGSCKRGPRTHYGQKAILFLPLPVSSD

Row | SMILES | Heptest [1] | Kd [2] | APTT [3] | Kd [4] | Ki [5] | Kd [6]
1 | CCCCCCCCCCCCCCCCCC(=O)NCCCOC1OC(COS(=O)(=O)O)C(OS(=O)(=O)O)C(OS(=O)(=O)O)C1OC1OC(COS(=O)(=O)O)C(OS(=O)(=O)O)C(OC2OC(COS(=O)(=O)O)C(OS(=O)(=O)O)C(OC3OC(COS(=O)(=O)O)C(OS(=O)(=O)O)C(OS(=O)(=O)O)C3OS(=O)(=O)O)C2OS(=O)(=O)O)C1OS(=O)(=O)O [Compound 24, 3-Stearamidopropyl 2,3,4,6-tetra-O-sodium sulfonato-α-D-mannopyranosyl-(1→3)-2,4,6-tri-O-sodium sulfonato-α-D-mannopyranosyl-(1→3)-2,4,6-tri-O-sodium sulfonato-α-D-mannopyranosyl-(1→2)-3,4,6-tri-O-sodium sulfonato-α-D-mannopyranoside] | 24.5 s | 0.44 ± 0.04 nM | 68.1 s | 40 ± 17 nM | 6 ± 2.1 nM | 108 ± 11 nM
2 | CC(C)CCCC(C)C1CCC2C3CCC4CC(OC(C(OS(=O)(=O)[O-])C(OS(=O)(=O)O)C(OC5OC(COS(=O)(=O)O)C(OC6OC(COS(=O)(=O)O)C(OC7OC(COS(=O)(=O)O)C(OS(=O)(=O)O)C(OS(=O)(=O)O)C7OS(=O)(=O)O)C(OS(=O)(=O)O)C6OS(=O)(=O)O)C(OS(=O)(=O)O)C5OS(=O)(=O)O)C(COS(=O)(=O)O)OS(=O)(=O)O)[n+]5ccccc5)CCC4(C)C3CCC12C [Compound 140, 3′-Cholestanyl 2,3,4,6-tetra-O-sulfo-α-D-glucopyranosyl-(1→4)-2,3,6-tri-O-sulfo-α-D-glucopyranosyl-(1→4)-2,3,6-tri-O-sulfo-α-D-glucopyranosyl-(1→4)-((1-pyridinium-1-yl)-2,3,5,6-tetra-O-sulfo-D-glucoside, tridecasodium salt] |  | 1.3 ± 0.6 nM |  | 12 ± 2 nM |  | 380 ± 40 nM
3 | CC(C)CCCC(C)C1CCC2C3CCC4CC(OCC(=O)NC5OC(COS(=O)(=O)O)C(OC6OC(COS(=O)(=O)O)C(OC7OC(COS(=O)(=O)O)C(OS(=O)(=O)O)C(OS(=O)(=O)O)C7OS(=O)(=O)O)C(OS(=O)(=O)O)C6OS(=O)(=O)O)C(OS(=O)(=O)O)C5OS(=O)(=O)O)CCC4(C)C3CCC12C (stereo not shown) [Compound 134] |  | 13 ± 3 nM |  | 1080 ± 200 nM |  | 630 ± 30 nM
4 | CC(C)CCCC(C)C1CCC2C3CCC4CC(OC5OC(COS(=O)(=O)O)C(OC6OC(COS(=O)(=O)O)C(OC7OC(COS(=O)(=O)O)C(OS(=O)(=O)O)C(OS(=O)(=O)O)C7OS(=O)(=O)O)C(OS(=O)(=O)O)C6OS(=O)(=O)O)C(OS(=O)(=O)O)C5OS(=O)(=O)O)CCC4(C)C3CCC12C [Compound 87, 3β-Cholestanyl 2,3,4,6-tetra-O-sodium sulfonato-α-D-glucopyranosyl-(1→4)-2,3,6-tri-O-sodium sulfonato-α-D-glucopyranosyl-(1→4)-2,3,6-tri-O-sodium sulfonato-β-D-glucopyranoside] | 29.2 s | 24.8 ± 2.3 nM | 51.6 s | 190 ± 60 nM | 9.1 ± 2.5 nM | 547 ± 50 nM
5 | CC(C)CCCC(C)C1CCC2C3CCC4CC(OC5OC(COC6OC(COS(=O)(=O)O)C(OC7OC(COS(=O)(=O)O)C(OC8OC(COS(=O)(=O)O)C(OS(=O)(=O)O)C(OS(=O)(=O)O)C8OS(=O)(=O)O)C(OS(=O)(=O)O)C7OS(=O)(=O)O)C(OS(=O)(=O)O)C6OS(=O)(=O)O)C(OS(=O)(=O)O)C(OS(=O)(=O)O)C5OS(=O)(=O)O)CCC4(C)C3CCC12C [Compound 119, 3′-Cholestanyl 2,3,4,6-tetra-O-sulfo-α-D-glucopyranosyl-(1→4)-2,3,6-tri-O-sulfo-α-D-glucopyranosyl-(1→4)-2,3,6-tri-O-sulfo-β-D-glucopyranosyl-(1→6)-2,3,4-tri-O-sulfo-α-D-mannopyranoside, tridecasodium salt] | 28.6 s | 5.9 ± 1.6 nM | 57.1 s | 7.9 ± 0.7 nM |  | 286 ± 25 nM
6 | CC(C)CCCC(C)C1CCC2C3CCC4CC(OC5OC(COS(=O)(=O)O)C(OS(=O)(=O)O)C(OS(=O)(=O)O)C5OC5OC(COS(=O)(=O)O)C(OS(=O)(=O)O)C(OC6OC(COS(=O)(=O)O)C(OS(=O)(=O)O)C(OS(=O)(=O)O)C6OS(=O)(=O)O)C5OS(=O)(=O)O)CCC4(C)C3CCC12C [Compound 39, 3β-Cholestanyl 2,3,4,6-tetra-O-sodium sulfonato-α-D-mannopyranosyl-(1→3)-2,4,6-tri-O-sodium sulfonato-α-D-mannopyranosyl-(1→2)-3,4,6-tri-O-sodium sulfonato-α-D-mannopyranoside] | 27.3 s | 18.5 ± 1.8 nM | 50.7 s | 319 ± 19 nM | 6.4 ± 2.5 nM | 631 ± 4 nM
7 | CC(C)CCCC(C)C1CCC2C3CCC4CC(OCc5cn(CCCOC6OC(COS(=O)(=O)O)C(OS(=O)(=O)O)C(OS(=O)(=O)O)C6OC6OC(COS(=O)(=O)O)C(OS(=O)(=O)O)C(OC7OC(COS(=O)(=O)O)C(OS(=O)(=O)O)C(OS(=O)(=O)O)C7OS(=O)(=O)O)C6OS(=O)(=O)O)nn5)CCC4(C)C3CCC12C [Compound 48, 3-{4-(Cholestan-3β-yl-oxymethyl)-[1,2,3]triazol-1-yl}propyl 2,3,4,6-tetra-O-sodium sulfonato-α-D-mannopyranosyl-(1→3)-2,4,6-tri-O-sodium sulfonato-α-D-mannopyranosyl-(1→2)-3,4,6-tri-O-sodium sulfonato-α-D-mannopyranoside] | 33.1 s | 22.6 ± 1 nM | 73.3 s | 460 ± 30 nM | 8.5 ± 0.14 nM | 480 ± 40 nM
8 | CC(C)CCCC(C)C1CCC2C3CC=C4CC(OC5OC(COS(=O)(=O)O)C(OS(=O)(=O)O)C(OS(=O)(=O)O)C5OC5OC(COS(=O)(=O)O)C(OS(=O)(=O)O)C(OC6OC(COS(=O)(=O)O)C(OS(=O)(=O)O)C(OC7OC(COS(=O)(=O)O)C(OS(=O)(=O)O)C(OS(=O)(=O)O)C7OS(=O)(=O)O)C6OS(=O)(=O)O)C5OS(=O)(=O)O)CCC4(C)C3CCC12C [Compound 17, 3β-Cholesteryl 2,3,4,6-tetra-O-sodium sulfonato-α-D-mannopyranosyl-(1→3)-2,4,6-tri-O-sodium sulfonato-α-D-mannopyranosyl-(1→3)-2,4,6-tri-O-sodium sulfonato-α-D-mannopyranosyl-(1→2)-3,4,6-tri-O-sodium sulfonato-α-D-mannopyranoside] |  | 3.2 ± 0.5 nM |  | 24 ± 6 nM |  | 
9 | CC(C)CCCC(C)C1CCC2C3CCC4CC(OCc5cn(C6OC(COS(=O)(=O)O)C(OC7OC(COS(=O)(=O)O)C(OC8OC(COS(=O)(=O)O)C(OS(=O)(=O)O)C(OS(=O)(=O)O)C8OS(=O)(=O)O)C(OS(=O)(=O)O)C7OS(=O)(=O)O)C(OS(=O)(=O)O)C6OS(=O)(=O)O)nn5)CCC4(C)C3CCC12C [Compound 76, 4-(Cholestan-3β-yl-oxymethyl)[1,2,3]triazol-1-yl 2,3,4,6-tetra-O-sodium sulfonato-α-D-glucopyranosyl-(1→4)-2,3,6-tri-O-sodium sulfonato-α-D-glucopyranosyl-(1→4)-1-deoxy-2,3,6-tri-O-sodium sulfonato-β-D-glucopyranoside] | 30.2 s | 50 ± 8 nM | 61.2 s | 790 ± 230 nM | 16 ± 4 nM | 610 ± 60 nM
